# Assay results published in patent US11608335B2, “Somatostatin modulators and uses thereof” (CRINETICS PHARMACEUTICALS, INC., priority 2018, dated 2023).
# Read-outs that look alike come from different tables or passages of the source.
# Assays:
# [1] = biological target: human somatostatin receptor subtype 5 (Homo sapiens, UniProt P35346); assay: cAMP assay for SST5R (inhibition of cAMP via human SST5 receptor); conditions: for Fold selectivity for SST5 vs SST2: SST5 over SST2, class symbols
# [2] = biological target: T1, human somatostatin receptor subtype 4 (Homo sapiens, UniProt P31391); assay: cAMP assay for hSST4R (inhibition of cAMP via human SST4 receptor); format: cell-based; conditions: from inhibition of cAMP via human SST5 receptor and human SST4 receptor
# T1 construct: expressed in transfected cells
# Description: cAMP Assay Protocol hSST4R:
# [3] = Liver microsomal stability assay; format: in vitro ADME; conditions: both sexes, human, pooled human liver microsomes; read-out: HLM Stability t½
# Method: Example B-2: Liver Microsomal Stability Assay Protocol
# The in vitro stabilities of compounds of interest were determined for various species using pooled male and female human, pooled male Sprague-Dawley rat, pooled male Cynomolgus monkey, and pooled male Beagle dog liver microsomes at microsomal protein concentrations of 0.5 mg/mL. Incubations were carried out in a potassium phosphate buffer (50 mM). The NADPH-generating system was composed of NADP+ (1 mM), magnesium chloride (3 mM), EDTA (1 mM), glucose-6-phosphate (5 mM) and glucose-6-phosphate dehydrogenase (1 Unit/mL) for all experiments. Compounds of interest in DMSO/acetonitrile were added to achieve a final incubation concentration of 1 μM (final DMSO content was 0.1% v/v and final acetonitrile content was 0.9%). The final incubation volume was 400 μL. Incubations were conducted at 37° C. for 0, 5, 10, 20, 40 and 60 minutes in a shaking water bath and terminated by removing 50 μL of incubation mixture and adding to 100 μL of ice cold acetonitrile containing internal standard. Following precipitation by centrifugation at 3500 rpm and 4° C. for 30 minutes, compounds of interest and internal standard were analyzed in the resultant supernatant using a multiple reaction monitoring (MRM) LC-MS/MS method. MS conditions were optimized for each analyte.
# (§1) Table E illustrates representative human liver microsomal stability and time dependent CYP2D6 inhibition (TDI) of exemplary compounds.
# [4] = biological target: T2, human somatostatin receptor subtype 3 (Homo sapiens, UniProt P32745); assay: cAMP assay for SST3R (inhibition of cAMP via human SST3 receptor); format: cell-based; conditions: from inhibition of cAMP via human SST5 receptor and human SST3 receptor
# T2 construct: expressed in transfected cells
# Description: cAMP Assay Protocol for SST3R:
# [5] = biological target: T3, human somatostatin receptor subtype 2 (Homo sapiens, UniProt P30874); assay: cAMP assay for SST2R (inhibition of cAMP via human SST2 receptor); format: cell-based; conditions: Table B, read-out: SST2 potency
# T3 construct: expressed in transfected cells
# Description: cAMP Assay Protocol for SST2R:
# [6] = biological target: T4, Cytochrome P450 (CYP) 2D6 enzyme (Homo sapiens, UniProt P10635); assay: Cytochrome P450 (CYP) 2D6 enzyme time dependent inhibition (TDI) assay; format: in vitro ADME; conditions: human liver microsomes
# T4 construct: using pooled male and female human liver microsomes; from tissue; host or cells: pooled male and female human liver microsomes
# Method: Example B-3: Cytochrome P450 (CYP) 2D6 Enzyme Time Dependent Inhibition (TDI) Assay Protocol
# The NADPH-generating system mix was composed of potassium phosphate buffer pH 7.4 (50 mM), NADP+ (1 mM), magnesium chloride (3 mM), EDTA (1 mM), glucose-6-phosphate (5 mM), glucose-6-phosphate dehydrogenase (1 Unit/mL), human liver microsomes (0.1 mg/mL) and water. Compounds of interest in DMSO serial diluted to six different concentrations (final DMSO content of 0.1% v/v) were added to the NADPH-generating system. CYP 2D6 substrate Dextromethorphan was added at a final incubation concentration of 5 μM. The final incubation volume was 200 μL. Incubations were conducted at 37° C. for 10 minutes in a shaking water bath to evaluate the drug candidates as […] of CYP 2D6. In a separate test plate, drug candidates were pre-incubated at 37° C. for 30 minutes in a shaking water bath in NADPH-generating system mix in the absence of Dextromethorphan substrate to allow for the formation of metabolites. This plate was removed from the water bath and placed on ice for 5 minutes. Dextromethorphan substrate was then added and the plate was incubated at 37° C. for 10 minutes in a shaking water bath to determine if any metabolites formed during the 30 minute pre-incubation inhibit the CYP 2D6 enzyme. All incubations were terminated by removing 50 μL of incubation mixture and adding to 200 μL of ice cold acetonitrile containing internal standard. Following precipitation by centrifugation at 3500 rpm and 4° C. for 30 minutes, the resultant supernatant were analyzed by using a multiple reaction monitoring (MRM) LC-MS/MS method detecting for internal standard and the CYP 2D6 enzyme mediated Dextromethorphan O-demethylation metabolite Dextrorphan and IC50 values were determined.
# as §1
# [7] = read-out: SST5 potency, inhibition of cAMP via human SST5 receptor, Table B
# [8] = t = 0 min pre-incubation, read-out: CYP2D6 inhibition, IC50 (μM) t = 0 min
# [9] = t = 30 min pre-incubation, read-out: CYP2D6 inhibition, IC50 (μM) t = 30 min
# T3 sequence (P30874 whole entry): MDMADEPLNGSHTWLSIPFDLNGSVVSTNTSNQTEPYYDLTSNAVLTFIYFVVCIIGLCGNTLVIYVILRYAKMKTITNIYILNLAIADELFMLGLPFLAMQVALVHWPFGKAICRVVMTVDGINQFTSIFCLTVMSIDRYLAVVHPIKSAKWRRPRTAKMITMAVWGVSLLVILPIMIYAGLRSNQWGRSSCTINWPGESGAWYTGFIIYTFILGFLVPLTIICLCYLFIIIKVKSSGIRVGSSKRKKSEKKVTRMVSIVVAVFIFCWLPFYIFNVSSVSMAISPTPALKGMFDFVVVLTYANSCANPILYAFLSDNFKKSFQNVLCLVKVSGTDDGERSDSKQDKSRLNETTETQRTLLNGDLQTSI
# T1 sequence (P31391 whole entry): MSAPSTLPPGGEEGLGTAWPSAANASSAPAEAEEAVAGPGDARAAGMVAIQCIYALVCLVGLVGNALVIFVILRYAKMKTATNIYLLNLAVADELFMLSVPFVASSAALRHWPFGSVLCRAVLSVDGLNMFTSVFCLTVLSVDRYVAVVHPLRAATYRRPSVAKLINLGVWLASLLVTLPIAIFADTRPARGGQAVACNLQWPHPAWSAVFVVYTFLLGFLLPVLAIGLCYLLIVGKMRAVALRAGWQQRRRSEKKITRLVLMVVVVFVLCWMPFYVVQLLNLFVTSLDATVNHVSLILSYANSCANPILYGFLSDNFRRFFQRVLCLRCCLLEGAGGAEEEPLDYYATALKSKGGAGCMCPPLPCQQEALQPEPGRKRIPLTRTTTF
# T4 sequence (P10635 whole entry): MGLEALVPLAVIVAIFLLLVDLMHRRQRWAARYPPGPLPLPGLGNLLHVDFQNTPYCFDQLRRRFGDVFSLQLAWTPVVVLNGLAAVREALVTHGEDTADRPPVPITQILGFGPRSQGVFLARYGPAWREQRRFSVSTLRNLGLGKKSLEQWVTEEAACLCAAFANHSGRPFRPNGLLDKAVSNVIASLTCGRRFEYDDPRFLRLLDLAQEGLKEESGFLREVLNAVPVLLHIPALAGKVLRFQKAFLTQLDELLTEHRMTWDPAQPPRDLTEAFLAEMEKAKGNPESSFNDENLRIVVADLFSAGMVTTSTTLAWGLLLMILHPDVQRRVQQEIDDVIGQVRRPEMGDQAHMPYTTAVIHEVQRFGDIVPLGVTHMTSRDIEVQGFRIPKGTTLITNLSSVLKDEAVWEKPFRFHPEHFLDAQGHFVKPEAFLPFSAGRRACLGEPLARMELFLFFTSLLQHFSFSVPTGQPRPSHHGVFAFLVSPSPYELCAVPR
# T2 sequence (P32745 whole entry): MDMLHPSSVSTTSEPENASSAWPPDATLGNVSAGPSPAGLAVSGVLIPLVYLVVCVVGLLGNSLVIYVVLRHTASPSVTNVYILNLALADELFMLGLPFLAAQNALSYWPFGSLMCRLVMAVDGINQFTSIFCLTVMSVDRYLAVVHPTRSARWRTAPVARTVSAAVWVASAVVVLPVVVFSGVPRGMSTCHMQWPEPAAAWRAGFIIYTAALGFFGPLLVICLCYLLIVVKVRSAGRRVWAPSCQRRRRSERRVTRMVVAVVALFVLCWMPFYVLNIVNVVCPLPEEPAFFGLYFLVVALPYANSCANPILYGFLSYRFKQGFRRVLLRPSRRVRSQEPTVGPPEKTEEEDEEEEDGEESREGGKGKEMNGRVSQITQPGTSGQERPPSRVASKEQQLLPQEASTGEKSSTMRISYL
# Chain of human somatostatin receptor subtype 5 (P35346 whole entry): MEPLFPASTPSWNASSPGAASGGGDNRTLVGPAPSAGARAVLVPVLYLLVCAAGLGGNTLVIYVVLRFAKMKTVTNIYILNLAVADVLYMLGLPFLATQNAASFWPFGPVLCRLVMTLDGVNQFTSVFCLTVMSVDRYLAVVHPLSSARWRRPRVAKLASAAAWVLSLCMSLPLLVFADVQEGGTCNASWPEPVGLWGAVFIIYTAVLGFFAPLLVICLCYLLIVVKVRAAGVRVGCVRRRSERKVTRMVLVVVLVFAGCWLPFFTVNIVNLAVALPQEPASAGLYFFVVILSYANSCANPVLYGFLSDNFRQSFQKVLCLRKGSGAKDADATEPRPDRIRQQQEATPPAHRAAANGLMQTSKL
EC50 [1] [µM],Fold selectivity for SST5 vs SST2 [1],"EC50 [1, 7] [µM]",Fold selectivity for SST5 vs SST4 [2] [fold],half-life at 1 μM [3] [h],Fold selectivity for SST5 vs SST3 [4] [fold],EC50 [5] [µM],"IC50 [6, 8] [µM]","IC50 [6, 9] [µM]",SMILES
< 0.01,++ (++=100 to 499),< 0.01,4.0,1.28,6.7,0.1 to 1,6.4,3.5,"Cc1cccc2nc(-c3cncc(-c4cc(F)cc(Cl)c4)c3N3CC[C@H](N)C3)[nH]c12 [Compound 2-183, (3S)-1-[3-(3-chloro-5-fluorophenyl)-5-(4-methyl-1H-1,3-benzodiazol-2-yl)pyridin-4-yl]pyrrolidin-3-amine]"
< 0.01,++ (++=100 to 499),< 0.01,1.4,0.967,7.0,0.1 to 1,4.2,2.5,"COc1cc(F)cc(-c2cncc(-c3nc4c(C)cccc4[nH]3)c2N2CC[C@H](N)C2)c1 [Compound 2-184, (3S)-1-[3-(3-fluoro-5-methoxyphenyl)-5-(4-methyl-1H-1,3-benzodiazol-2-yl)pyridin-4-yl]pyrrolidin-3-amine]"
< 0.01,++ (++=100 to 499),< 0.01,1.2,1.28,6.1,0.1 to 1,9.5,2.3,"Cc1cccc2nc(-c3cncc(-c4cc(F)cc(C(F)(F)F)c4)c3N3CC[C@H](N)C3)[nH]c12 [Compound 2-185, (3S)-1-{3-[3-fluoro-5-(trifluoromethyl)phenyl]-5-(4-methyl-1H-1,3-benzodiazol-2-yl)pyridin-4-yl}pyrrolidin-3-amine]"
< 0.01,+ (+=10 to 99),< 0.01,1.0,2.88,5.1,0.01 to 0.1,4.7,1.8,"Cc1cccc2nc(-c3cncc(-c4cc(F)cc(F)c4)c3N3CC[C@H](N)C3)[nH]c12 [Compound 2-201, (3S)-1-[3-(3,5-difluorophenyl)-5-(4-methyl-1H-1,3-benzodiazol-2-yl)pyridin-4-yl]pyrrolidin-3-amine]"
